In article PMC11304236, “A Novel Drug Candidate for Sepsis Targeting Heparanase by Inhibiting Cytokine Storm” (Advanced Science, 2024):

Columns and labels:
HPA = HPA expression in TNF-α-stimulated HUVECs (immunofluorescence, western blotting); format: cell-based, human; settings: CV122 50 µM 3 h, then TNF-α 20 ng mL−1 1 h
Method: (§1) Lungs were harvested from LPS‐induced and CLP‐induced sepsis model mice, and frozen sections were prepared. HUVECs and RAW264.7 macrophages were incubated with CV122 for 3 h, and TNF‐α (20 ng mL^−1) and LPS (5 µg mL^−1) were used to stimulate cells for 1 h. Lung tissue, HUVECs, and RAW264.7 macrophages were fixed with 4% paraformaldehyde for 10 min before permeabilization with 0.5% Triton X‐100 for 10 min. The membrane was sealed with 4% skimmed milk powder and incubated at room temperature for 50 min. Primary antibodies were rabbit anti‐heparanase polyclonal antibodies overnight at 4 °C. The diluent of the secondary antibody FITC‐WGA‐lectin was kept at room temperature and protected from light for 1 h. Nuclei were stained with DAPI. After 120 s, images were acquired with a confocal microscope (LSM 800, Zeiss, Germany).
CV122 (50 µM) was incubated with HUVECs and RAW264.7 cells for 3 h, and LPS (5 µg mL^−1) and TNF‐α (20 ng mL^−1) were incubated for 1 h. Total protein was extracted with RIPA tissue/cell lysate solution. Lung tissues were collected and homogenized in cold RIPA buffer to obtain proteins. The BCA method was used to quantify protein. After full denaturing, proteins were separated by 10% SDS‐PAGE and transferred to PVDF membrane. […] Blots were developed with a chemiluminescent HRP substrate, and the protein bands were detected with a chemiluminescence imager (MiniChemi610).

HUVECs = test: Cell surface glycocalyx of TNF-α-stimulated HUVECs (WGA-FITC, atomic force microscopy); format: cell-based, human
Method: as §1
HUVECs and RAW264.7 cells in the logarithmic growth phase were digested, centrifuged, and then plated in a six‐well plate at a density of 1 × 10[5] cells per well. CV122 was incubated for 3 h, and cells were stimulated with LPS (5 µg mL^−1) and TNF‐α (20 ng mL^−1) for 5 h. Cell‐covered slides were carefully removed and placed on the stage of the atomic force microscope with needle parameters: elastic coefficient 0.4 N M^−1, sensitivity 65.63 nm V^−1, with otherwise the usual atomic force microscope (Bruker, Billerica, MA) parameters used.

COC1OC(COS(=O)(=O)O)C(OC2OC(C(=O)O)C(OC3OC(COS(=O)(=O)O)C(OC4OC(C(=O)O)C(OC5OC(COS(=O)(=O)O)C(O)C(O)C5NS(=O)(=O)O)C(OS(=O)(=O)O)C4O)C(OS(=O)(=O)O)C3NS(=O)(=O)O)C(O)C2OS(=O)(=O)O)C(O)C1NS(=O)(=O)O (stereo not drawn) [CV122]
HPA expression in HUVECs (HPA): significantly inhibited HPA expression in HUVECs | glycocalyx integrity by WGA-FITC fluorescence (HUVECs): rescued glycocalyx integrity | glycocalyx structure / surface roughness by atomic force microscopy (HUVECs): reduced glycocalyx damage and resulted in a smoother surface
